Patent US12522601B2, “1,3,4-oxadiazole derivative compounds as histone deacetylase 6 inhibitor, and the pharmaceutical composition comprising the same” (CHONG KUN DANG PHARMACEUTICAL CORP., priority 2020, dated 2026)

How the values were obtained:
human recombinant HDAC1 = target: T1, human recombinant HDAC1 (Homo sapiens, UniProt Q13547); test: In vitro HDAC enzyme activity inhibition assay, HDAC1 (HDAC Fluorimetric Drug Discovery Kit); format: biochemical; details: human recombinant HDAC1, Fluor de Lys-SIRT1 substrate 10 μM, 30° C. for 60 minutes
T1 construct: purchased Enzo Life Sciences, Inc. BML-SE456
Summary of the method: (§1)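 Both HDAC1 and HDAC6 (human recombinant, 0.3 μg) tested identically: 10 μM fluorogenic Fluor de Lys-SIRT1 substrate, reaction 60 min at 30° C, developer added for 30 min. IC50 calculated from Ex 360/Em 460 signal over 5-fold serial dilutions.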

human recombinant HDAC6 = target: T2, human recombinant HDAC6 (Homo sapiens, UniProt Q9UBN7); test: In vitro HDAC enzyme activity inhibition assay, HDAC6 (HDAC Fluorimetric Drug Discovery Kit); format: biochemical; details: for HDAC6 Selectivity (fold): HDAC6 versus HDAC1; for IC50: human recombinant HDAC6, same protocol as the HDAC1 test
T2 construct: purchased Calbiochem Inc. 382180
T2 sequence (Q9UBN7 1-1215): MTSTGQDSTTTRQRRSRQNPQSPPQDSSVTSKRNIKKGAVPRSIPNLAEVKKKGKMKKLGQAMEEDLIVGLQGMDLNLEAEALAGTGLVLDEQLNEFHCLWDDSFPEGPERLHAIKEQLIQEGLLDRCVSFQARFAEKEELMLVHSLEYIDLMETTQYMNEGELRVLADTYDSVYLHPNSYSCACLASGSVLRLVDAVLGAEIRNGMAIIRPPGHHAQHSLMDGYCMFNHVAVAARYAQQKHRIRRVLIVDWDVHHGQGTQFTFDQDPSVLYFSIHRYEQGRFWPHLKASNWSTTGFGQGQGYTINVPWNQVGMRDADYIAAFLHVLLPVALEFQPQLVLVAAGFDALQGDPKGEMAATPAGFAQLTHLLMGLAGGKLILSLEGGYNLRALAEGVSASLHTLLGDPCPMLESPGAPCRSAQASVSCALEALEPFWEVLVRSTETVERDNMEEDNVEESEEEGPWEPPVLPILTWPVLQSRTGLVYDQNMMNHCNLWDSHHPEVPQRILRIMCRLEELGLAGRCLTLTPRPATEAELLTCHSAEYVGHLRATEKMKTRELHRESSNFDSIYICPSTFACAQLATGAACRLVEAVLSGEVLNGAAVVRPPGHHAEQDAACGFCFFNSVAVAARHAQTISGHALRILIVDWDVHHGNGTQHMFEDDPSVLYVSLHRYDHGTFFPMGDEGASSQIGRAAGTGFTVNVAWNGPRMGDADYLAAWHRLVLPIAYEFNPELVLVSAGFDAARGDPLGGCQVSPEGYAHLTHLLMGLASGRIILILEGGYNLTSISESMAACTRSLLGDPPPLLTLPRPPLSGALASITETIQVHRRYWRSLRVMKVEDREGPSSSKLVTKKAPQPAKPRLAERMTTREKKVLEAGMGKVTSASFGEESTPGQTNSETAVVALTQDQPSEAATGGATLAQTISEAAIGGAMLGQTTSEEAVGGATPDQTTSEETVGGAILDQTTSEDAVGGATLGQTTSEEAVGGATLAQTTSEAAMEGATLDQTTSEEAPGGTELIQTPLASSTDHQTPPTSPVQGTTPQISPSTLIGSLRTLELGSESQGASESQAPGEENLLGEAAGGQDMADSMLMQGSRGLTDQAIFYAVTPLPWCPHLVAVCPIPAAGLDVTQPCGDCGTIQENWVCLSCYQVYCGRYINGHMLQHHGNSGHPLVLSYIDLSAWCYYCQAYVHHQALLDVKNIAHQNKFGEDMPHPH
Summary of the method: as §1

T1 sequence (Q13547 whole entry): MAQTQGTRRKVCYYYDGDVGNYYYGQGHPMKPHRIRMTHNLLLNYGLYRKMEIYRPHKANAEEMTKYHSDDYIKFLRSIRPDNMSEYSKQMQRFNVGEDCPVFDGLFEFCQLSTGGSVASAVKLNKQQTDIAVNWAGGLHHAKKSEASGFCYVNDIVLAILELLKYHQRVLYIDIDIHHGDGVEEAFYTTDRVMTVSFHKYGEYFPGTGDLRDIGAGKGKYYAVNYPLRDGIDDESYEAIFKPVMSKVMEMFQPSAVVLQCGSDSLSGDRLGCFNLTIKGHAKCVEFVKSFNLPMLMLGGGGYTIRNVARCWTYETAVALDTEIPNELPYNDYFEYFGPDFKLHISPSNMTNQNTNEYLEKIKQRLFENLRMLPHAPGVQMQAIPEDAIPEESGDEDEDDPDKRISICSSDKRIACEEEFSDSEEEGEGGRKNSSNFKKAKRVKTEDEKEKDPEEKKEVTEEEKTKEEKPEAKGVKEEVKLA

Structure (SMILES) | IC50 (human recombinant HDAC1) | HDAC6 Selectivity (fold) (human recombinant HDAC6) | IC50 (human recombinant HDAC6)
COC(=O)N1CCC(C(=O)N(Cc2cn3ccc(-c4nnc(C(F)F)o4)cc3n2)c2cccc(F)c2)CC1 [Compound 4154, methyl 4-(((7-(5-(difluoromethyl)-1,3,4-oxadiazol-2-yl)imidazo[1,2-a]pyridin-2-yl)methyl)(3-fluorophenyl)carbamoyl)piperidine-1-carboxylate] | > 50000 nM | 218 fold | 229 nM
CN(C)C(=O)N1CCC(C(=O)N(Cc2cn3ccc(-c4nnc(C(F)F)o4)cc3n2)c2cccc(F)c2)CC1 [Compound 4155, N4-((7-(5-(difluoromethyl)-1,3,4-oxadiazol-2-yl)imidazo[1,2-a]pyridin-2-yl)methyl)-N4-(3-fluorophenyl)-N1,N1-dimethylpiperidine-1,4-dicarboxamide] | > 50000 nM | 142 fold | 352 nM
O=C(C1CCN(c2ccccn2)CC1)N(Cc1cn2ccc(-c3nnc(C(F)F)o3)cc2n1)c1cccc(F)c1 [Compound 4156, N-((7-(5-(difluoromethyl)-1,3,4-oxadiazol-2-yl)imidazo[1,2-a]pyridin-2-yl)methyl)-N-(3-fluorophenyl)-1-(pyridin-2-yl)piperidine-4-carboxamide] | > 50000 nM | 359 fold | 139 nM
O=C(C1CCN(c2ncccn2)CC1)N(Cc1cn2ccc(-c3nnc(C(F)F)o3)cc2n1)c1cccc(F)c1 [Compound 4157, N-((7-(5-(difluoromethyl)-1,3,4-oxadiazol-2-yl)imidazo[1,2-a]pyridin-2-yl)methyl)-N-(3-fluorophenyl)-1-(pyrimidin-2-yl)piperidine-4-carboxamide] | > 50000 nM | 306 fold | 163 nM
CC(C)N1CC(C(=O)N(Cc2cn3ccc(-c4nnc(C(F)F)o4)cc3n2)c2ccccc2)C1 [Compound 4160, N-((7-(5-(difluoromethyl)-1,3,4-oxadiazol-2-yl)imidazo[1,2-a]pyridin-2-yl)methyl)-1-isopropyl-N-phenylazetidine-3-carboxamide] | > 50000 nM | 247 fold | 202 nM
O=C(C1CN(C2CCC2)C1)N(Cc1cn2ccc(-c3nnc(C(F)F)o3)cc2n1)c1ccccc1 [Compound 4162, 1-cyclobutyl-N-((7-(5-(difluoromethyl)-1,3,4-oxadiazol-2-yl)imidazo[1,2-a]pyridin-2-yl)methyl)-N-phenylazetidine-3-carboxamide] | > 50000 nM | 140 fold | 358 nM
O=C(C1CN(C2COC2)C1)N(Cc1cn2ccc(-c3nnc(C(F)F)o3)cc2n1)c1ccccc1 [Compound 4163, N-((7-(5-(difluoromethyl)-1,3,4-oxadiazol-2-yl)imidazo[1,2-a]pyridin-2-yl)methyl)-1-(oxetan-3-yl)-N-phenylazetidine-3-carboxamide] | > 50000 nM | 122 fold | 410 nM
O=C(C1CN(C2CCCCC2)C1)N(Cc1cn2ccc(-c3nnc(C(F)F)o3)cc2n1)c1ccccc1 [Compound 4164, 1-cyclohexyl-N-((7-(5-(difluoromethyl)-1,3,4-oxadiazol-2-yl)imidazo[1,2-a]pyridin-2-yl)methyl)-N-phenylazetidine-3-carboxamide] | > 50000 nM | 147 fold | 340 nM
O=C(C1CN(C2CCOCC2)C1)N(Cc1cn2ccc(-c3nnc(C(F)F)o3)cc2n1)c1ccccc1 [Compound 4165, N-((7-(5-(difluoromethyl)-1,3,4-oxadiazol-2-yl)imidazo[1,2-a]pyridin-2-yl)methyl)-N-phenyl-1-(tetrahydro-2H-pyran-4-yl) azetidine-3-carboxamide] | > 50000 nM | 121 fold | 413 nM
O=C(C1CN(C2CCC(F)(F)CC2)C1)N(Cc1cn2ccc(-c3nnc(C(F)F)o3)cc2n1)c1ccccc1 [Compound 4166, 1-(4,4-difluorocyclohexyl)-N-((7-(5-(difluoromethyl)-1,3,4-oxadiazol-2-yl)imidazo[1,2-a]pyridin-2-yl)methyl)-N-phenylazetidine-3-carboxamide] | > 50000 nM | 197 fold | 254 nM
O=C(C1CCC1)N1CC(C(=O)N(Cc2cn3ccc(-c4nnc(C(F)F)o4)cc3n2)c2ccccc2)C1 [Compound 4170, 1-(cyclobutanecarbonyl)-N-((7-(5-(difluoromethyl)-1,3,4-oxadiazol-2-yl)imidazo[1,2-a]pyridine-2-yl)methyl)-N-phenylazetidine-3-carboxamide] | > 50000 nM | 144 fold | 347 nM
O=C(C1COC1)N1CC(C(=O)N(Cc2cn3ccc(-c4nnc(C(F)F)o4)cc3n2)c2ccccc2)C1 [Compound 4171, N-((7-(5-(difluoromethyl)-1,3,4-oxadiazol-2-yl)imidazo[1,2-a]pyridin-2-yl)methyl)-1-(oxetan-3-carbonyl)-N-phenylazetidine-3-carboxamide] | > 50000 nM | 141 fold | 355 nM
O=C(C1CN(C(=O)C(F)(F)F)C1)N(Cc1cn2ccc(-c3nnc(C(F)F)o3)cc2n1)c1ccccc1 [Compound 4172, N-((7-(5-(difluoromethyl)-1,3,4-oxadiazol-2-yl)imidazo[1,2-a]pyridin-2-yl)methyl)-N-phenyl-1-(2,2,2-trifluoroacetyl) azetidine-3-carboxamide] | > 50000 nM | 184 fold | 272 nM

Further lines, results first:

IC50 (human recombinant HDAC1) | HDAC6 Selectivity (fold) (human recombinant HDAC6) | IC50 (human recombinant HDAC6) | Structure (SMILES)
> 50000 nM | 112 fold | 447 nM | CN1CC(C(=O)N(Cc2cn3ccc(-c4nnc(C(F)F)o4)cc3n2)c2ccccc2)C1 [Compound 4158, N-((7-(5-(difluoromethyl)-1,3,4-oxadiazol-2-yl)imidazo[1,2-a]pyridin-2-yl)methyl)-1-methyl-N-phenylazetidine-3-carboxamide]
> 50000 nM | 118 fold | 425 nM | CCN1CC(C(=O)N(Cc2cn3ccc(-c4nnc(C(F)F)o4)cc3n2)c2ccccc2)C1 [Compound 4159, N-((7-(5-(difluoromethyl)-1,3,4-oxadiazol-2-yl)imidazo[1,2-a]pyridin-2-yl)methyl)-1-ethyl-N-phenylazetidine-3-carboxamide]
> 50000 nM | 224 fold | 223 nM | CC(CO)N1CC(C(=O)N(Cc2cn3ccc(-c4nnc(C(F)F)o4)cc3n2)c2ccccc2)C1 (stereo not drawn) [Compound 4161, N-((7-(5-(difluoromethyl)-1,3,4-oxadiazol-2-yl)imidazo[1,2-a]pyridin-2-yl)methyl)-1-(1-hydroxypropan-2-yl)-N-phenylazetidine-3-carboxamide]
> 50000 nM | 112 fold | 447 nM | CC(=O)N1CC(C(=O)N(Cc2cn3ccc(-c4nnc(C(F)F)o4)cc3n2)c2ccccc2)C1 [Compound 4167, 1-acetyl-N-((7-(5-(difluoromethyl)-1,3,4-oxadiazol-2-yl)imidazo[1,2-a]pyridine-2-yl)methyl)-N-phenylazetidine-3-carboxamide]
> 50000 nM | 125 fold | 400 nM | CCC(=O)N1CC(C(=O)N(Cc2cn3ccc(-c4nnc(C(F)F)o4)cc3n2)c2ccccc2)C1 [Compound 4168, N-((7-(5-(difluoromethyl)-1,3,4-oxadiazol-2-yl)imidazo[1,2-a]pyridin-2-yl)methyl)-N-phenyl-1-propionylazetidine-3-carboxamide]
> 50000 nM | 61 fold | 815 nM | O=C(CO)N1CC(C(=O)N(Cc2cn3ccc(-c4nnc(C(F)F)o4)cc3n2)c2ccccc2)C1 [Compound 4169, N-((7-(5-(difluoromethyl)-1,3,4-oxadiazol-2-yl)imidazo[1,2-a]pyridin-2-yl)methyl)-1-(2-hydroxyacetyl)-N-phenylazetidine-3-carboxamide]
